Results on seven compounds are retold here after article PMC9503009, “Determining Ligand and Ion-Induced Conformational Changes in Serotonin Transporter with Its Fluorescent Substrates” (International Journal of Molecular Sciences, 2022).

Common to all, as to format: cell-based
The target of test [1] is T1, SERT S277C/X5C (Rattus norvegicus, UniProt P31652, C109A/C15A/C21A/C357I/C622A/S277C).
T1 construct: expressed in transfected cells
Description: MTS reagent inhibition of ASP+ binding in digitonin-permeabilized cells (cytoplasmic pathway cysteine accessibility). How it is done:
After 3 × rapid washing with KRH buffer, APP^+ or ASP^+ accumulation was measured as described under “Materials and Methods”. […] These representative images were parallelly acquired from one experiment. […] After 3 × washing, ASP^+ binding to the cell membrane was measured as described under “Materials and Methods”. […] (D) The effects of MTSET on ASP^+ binding of S277C/X5C and X5C. […] After 3 × rapid washing, ASP^+ binding was measured as described under “Materials and Methods”.
After washing to remove excess MTSEA and ligands, ASP^+ binding was measured as described under “Materials and Methods”. […] The IC50 values of MTSEA inhibition of ASP^+ binding were converted to rate constants.
The cells stably expressing Y107C/C109A were treated at 22 °C for 15 min with indicated concentrations of MTSET in the absence or presence of 10 μM vilazodone. After washing to remove excess MTSET and vilazodone, APP^+ uptake was measured as described under “Materials and Methods”. […] The IC50 values of MTSET inhibition were used to calculate rate constants as described under “Materials and Method”. Error bars represent SEM from three experiments. […] After washing to remove excess MTSEA and vilazodone, ASP^+ binding was measured as described under “Materials and Methods”. […] The IC50 values of MTSEA inhibition of ASP^+ binding were converted to rate constants. […]
For cytoplasmic pathway accessibility, measurements were performed with the cells stably expressing S277C/X5C. […] The cells, then, were washed free of unreacted MTSEA and ligands, ASP^+ binding was measured by adding 500 μL KRH buffer containing 10 μM ASP^+ and incubating at 22 °C for 5 min. Excess ASP^+ was removed by 3 × rapid washing with KRH buffer and ASP^+ fluorescence retained in the cell membrane was measured by confocal imaging analysis in the permeabilized cells. […] The MTSEA IC50 value was determined and used to calculate the rate constant for S277C/X5C modification.

Test [2] concerns the target T2, SERT S404C/C109A (Rattus norvegicus, UniProt P31652, C109A/S404C).
T2 construct: expressed in transfected cells
The test is described as follows: MTSET inhibition of APP+ uptake in live cells (extracellular pathway cysteine accessibility). How it is done: (§1) Figure 3 Reactivity of the extracellular cysteine mutants with MTSET. (A) MTSET concentration-dependent inhibition of APP^+ uptake. The cells stably expressing C109A, Y107C/C109C, or S404C/C109A were incubated for 15 min with indicated concentrations of MTSET. The MTSET concentration giving half-maximal inhibition of APP^+ accumulation in the cells was used to calculate inactivation rate constants as plotted in (B). […] Representative images of APP^+ uptake by C109A, Y107C/C109A, or S404C/C109A under various MTSET concentrations were shown in Supplemental Figure S1. […] (B) Rate constants of MTSET inhibition of APP^+ uptake. At the half-maximal concentration, the half-time is the assay time (15 min) and the first-order rate constant is 7.7 × 10^−4 s^−1. This rate constant was divided by the half maximal MTSET concentration from (A) to obtain the pseudo first-order modification rate constant. Error bars represent SEM of three experiments.
(§2) The cells stably expressing Y107C/C109A or S404C/C109A were preincubated with indicated ligands and MTSET at a concentration of 0.01 mM for Y107C/C109A or 0.002 mM for S404C/C109A at 22 °C for 15 min, respectively. At the end of this incubation, cells were washed free of MTSET and ligands into KRH buffer containing NaCl and APP^+. APP^+ uptake was measured as described under “Materials and Methods”. Error bars represent SEM from three experiments. Asterisks and hashtags indicate statistically significant changes (p < 0.05) in the accumulated APP^+ fluorescence compared with the corresponding control (MTSET alone).
Accessibility of the cysteine residues in the extracellular pathway was measured by reactivity of Y107C/C109A and S404C/C109A mutants with MTSET. The cells stably expressing Y107C/C109A or S404C/C109A were incubated with MTSET over a range of concentrations in HEPES buffer containing indicated ligands or ions at 22 °C for 15 min. After excess MTSET and ligands were removed by rapid 3 × washing with the same buffer, the cells were then incubated with APP^+ at a final concentration of 2 μM in KRH buffer at 22 °C for another 5 min. The extent of APP^+ accumulated in the cells was determined by confocal imaging analysis in the live cells. To measure the effects of antidepressants, substrate 5-HT, or other ligands such as 5-HTP or tryptophan, where added, was present at 10 μM. To measure the effects of ions, 150 mM […] (NMDG) gluconate, and NMDG chloride, sodium isethionate, or NaCl was used as indicated. These measurements of reactivity depend on the ability of MTSET to inactivate APP^+ transport activity by an allosteric mechanism. The MTSET concentration causing half-maximal inactivation was determined and used to calculate the rate constant for cysteine modification, as described previously.

Test [3] deals with T3, SERT Y107C/C109A (Rattus norvegicus, UniProt P31652, C109A/Y107C).
T3 construct: expressed in transfected cells
The description is as above. How it is done:
as §1
(A) MTSET concentration-dependent inhibition of APP^+ uptake. […] After washing to remove excess MTSET and ligands, APP^+ uptake was measured as described under “Materials and Methods”. […] (B) Rate constants of MTSET inhibition of APP^+ uptake. The IC50 values of MTSET inhibition were used to calculate rate constants as described under “Materials and Methods”. Error bars represent SEM from three experiments.
as §2
The cells stably expressing Y107C/C109A were treated at 22 °C for 15 min with indicated concentrations of MTSET in the absence or presence of 10 μM vilazodone. After washing to remove excess MTSET and vilazodone, APP^+ uptake was measured as described under “Materials and Methods”. […] The IC50 values of MTSET inhibition were used to calculate rate constants as described under “Materials and Method”. Error bars represent SEM from three experiments. […] After washing to remove excess MTSEA and vilazodone, ASP^+ binding was measured as described under “Materials and Methods”. […] The IC50 values of MTSEA inhibition of ASP^+ binding were converted to rate constants.

The next test has as its target T4, WT-SERT (Rattus norvegicus, UniProt P31652).
T4 construct: expressed in transfected cells
Description: Kinetic analysis of APP+ or ASP+ uptake by fluorescence imaging in stably expressing cells. To be noted: 22 °C, 5 min, mean ± SEM of three experiments. As to the method: Figure 1 Kinetic analysis and ion requirements for APP^+ or ASP^+ uptake by SERT. (A) Kinetic analysis for APP^+ or ASP^+ uptake by SERT. […] After washing to remove excess APP^+ or ASP^+, the accumulated fluorescence within the cells (n ≥ 30) were counted and normalized to the cell areas, as described under “Materials and Methods”. […] (B) Ion-dependence of APP^+ or ASP^+ uptake. APP^+ or ASP^+ uptake was measured by incubating the cells stably expressing WT- SERT with APP^+ at 2 μM or ASP^+ at 10 μM in HEPES buffer containing 150 mM NMDGCl, sodium isethionate, or NaCl, respectively. Error bars represent SEM of three experiments.
The cells stably expressing SERT-WT or mutants were wet mounted on polylysine-coated glass slides and applied for indicated treatments. In brief, the cells were washed twice with 500 μL KRH buffer containing 20 mM HEPES, pH 7.4, 120 mM NaCl, 1.3 mM KCl, 2.2 mM CaCl2, 1.2 mM MgSO4, and 0.1% (w/v) glucose. APP^+ or ASP^+ accumulation was measured by adding 500 μL KRH buffer containing 2 μM APP^+ or 10 μM ASP^+ and incubating for 5 min at 22 °C. Excess APP^+ or ASP^+ was then removed by rapid washing three times with 500 μL KRH buffer. The extent of APP^+ or ASP^+ accumulated in the cells was determined with confocal imaging analysis.
Images were acquired at 22 °C using a 20 or 60 × water immersion objective with the Zeiss LSM 900 confocal microscope. APP^+ and ASP^+ were excited by an argon laser with excitation peak at 488 nm. APP^+ fluorescence was captured at 490–565 nm and ASP^+ fluorescence at 600–650 nm. Images were analyzed using National Institutes of Health ImageJ v1.53q. Fluorescence intensity in each cell was counted and normalized to the cell area (mean fluorescence). To obtain ASP^+ binding on the cell surface, intracellular ASP^+ fluorescence intensity was subtracted from total fluorescence in each cell, and the resulting ASP^+ fluorescence on the cell surface was then normalized to the cell membrane area.

The target of test [4] is T3, SERT Y107C/C109A. The test is described as above. To be noted: 22 °C, 5 min.
Test [5] addresses T1, SERT S277C/X5C. The description is as above. To be noted: for Km / Vmax: uptake by cells stably expressing S277C/X5C, 22 °C, 5 min.
The target in test [6] is T2, SERT S404C/C109A. Described as above. The conditions noted are these: for Km / Vmax: uptake by cells stably expressing S404C/C109A, 22 °C, 5 min.
Setting [7] is: S404C/C109A, MTSET 0.002 mM, ligand 10 μM, 22 °C, 15 min.
[8] abbreviates: Y107C/C109A, MTSET 0.01 mM, ligand 10 μM, 22 °C, 15 min.

Molecules are shown by their SMILES. Like-named read-outs stand apart in the source and are kept apart here.

Turning to `NCCc1c[nH]c2ccc(O)cc12` [5-HT, 5-hydroxytrypatamine], the “increase of rate constant of MTSEA modification compared with control” value at SERT S277C/X5C [1] (S277C/X5C, 10 μM ligand in the presence of NaCl, 25 μg/mL digitonin) is given as ~ 2 folds. Besides, the “effect of ligand on reactivity with MTSET” value (shortened to “effect of ligand”) at SERT S404C/C109A [2] (setting [7]) and at SERT Y107C/C109A [3] (setting [8]) was “significantly decreased the reactivity” in each case. The “decrease of MTSET rate constant compared with control” value on SERT Y107C/C109A [3] (Y107C/C109A, 10 μM ligand with Na+ and Cl−, control MTSET alone) was roughly 2 folds.

Consider `N[C@@H](Cc1c[nH]c2ccc(O)cc12)C(=O)O` [5-HTP, 5-hydroxytryptophan], for which the “effect of ligand” value on SERT S404C/C109A [2] and at SERT Y107C/C109A [3] was “little effect on the reactivity” each time.

Usually Km stands for the concentration of substrate that gives half-maximal velocity. On to `CN(C)c1ccc(-c2cc[n+](C)cc2)cc1` [APP^+, 4-[4-(dimethylamino)phenyl]-1-methylpyridinium], for which the Michaelis constant (Km) turned out to be 2.63 ± 0.06 µM at WT-SERT, 2.39 ± 0.04 µM on SERT Y107C/C109A [4], 1.99 ± 0.05 µM on SERT S277C/X5C [5] and 2.07 ± 0.04 µM on SERT S404C/C109A [6]. In addition, the Vmax at WT-SERT is reported as 30.5 ± 1.4 AFU; at SERT Y107C/C109A [4], 39.4 ± 1.8 AFU; at SERT S277C/X5C [5], 26.5 ± 1.1 AFU; at SERT S404C/C109A [6] it was 34.9 ± 1.2 AFU.

With `CN(C)c1ccc(C=Cc2cc[n+](C)cc2)cc1` [ASP^+, 4-(4-(dimethylamino)styryl)-N-methylpyridinium], the Km at WT-SERT came to 8.52 ± 0.15 µM; at SERT Y107C/C109A [4] it was 9.32 ± 0.48 µM; at SERT S277C/X5C [5], 9.66 ± 0.94 µM; at SERT S404C/C109A [6], 8.87 ± 0.59 µM. Besides, the Vmax turned out to be 75.8 ± 5.3 AFU at WT-SERT, 59.9 ± 4.2 AFU at SERT Y107C/C109A [4], 40.2 ± 3.0 AFU on SERT S277C/X5C [5] and 53.2 ± 3.8 AFU on SERT S404C/C109A [6]. Moreover, the “Vmax value relative to the WT” value was roughly 50% on SERT S277C/X5C [5] (S277C/X5C, ASP+ as substrate) and roughly 70% at SERT S404C/C109A [6] (S404C/C109A, ASP+ as substrate).

Turning to `N[C@@H](Cc1c[nH]c2ccccc12)C(=O)O` [Trp, tryptophan], the “effect of ligand” value on SERT S404C/C109A [2] and on SERT Y107C/C109A [3] was “little effect on the reactivity” throughout.

`CN(C)CCCN1c2ccccc2CCc2ccccc21` [imipramine]: the “effect of ligand” value at SERT S404C/C109A [2] (setting [7]) and on SERT Y107C/C109A [3] (setting [8]) was “markedly increased the reactivity” in each case.

Take `N#Cc1ccc2[nH]cc(CCCCN3CCN(c4ccc5oc(C(N)=O)cc5c4)CC3)c2c1` [vilazodone]: the “effect on Cys277 reactivity with MTSEA” value on SERT S277C/X5C [1] (digitonin-permeabilized cells expressing S277C/X5C, 10 μM vilazodone) is “decreased Cys277 reactivity”. Further, at SERT Y107C/C109A [3] (intact cells expressing Y107C/C109A, 10 μM vilazodone), the “effect on Cys107 reactivity with MTSET” value is reported as “increased Cys107 reactivity”.
